Measured values as given in US20170252289A1, “Hydroponic Tiliacora Triandra and Use Thereof” (Avon Products, Inc., priority 2016, published 2017).

Legend:
HAS3 gene = assay: Hyaluronic acid synthase (HAS) gene expression by qPCR in treated 3D skin tissue, HAS3; assay type: cell-based, Human; conditions: treated 3D skin EFT400FT tissue, 18S house keeping gene
Description: (§1) Total RNA was isolated from each treated 3D skin EFT400FT tissue using Trizol reagent (Thermo Fisher Scientific, MA). 1 μg of total RNA was used to generate cDNA using Supercript III first strand synthesis kit (Thermo Fisher Scientific, MA). Reverse transcriptase, Buffer, dNTP, Random primer, and RNase Inhibitor were diluted with the RNA according to the protocol from the manufacturer. 25 ng cDNA was used in 20 μl q-PCR reactions. Briefly, 10 μl of TaqMan Advanced Master Mix (Thermo Fisher Scientific, MA), 4 μl of H2O, 5 μl of cDNA, and 1 μl of either HAS primer (HAS2 Hs00193435_m1 and HAS3 Hs00193436_m1, Applied Biosystems) or 18S (Hs99999901_s1, Applied Biosystems) as a house keeping gene were mixed in a 96 well plate. The condition of qPCR was an incubation step of 95° C. for 20 seconds followed by 40 cycles of 95° C. for 3 seconds and 60° C. for 30 seconds. CT and RQ values were obtained from the software of applied Biosystems 7500 Fast Real Time PCR system. The results are shown below in Table 6, as percentage change of expression of hyaluronan synthase genes over control.

HAS2 gene = assay: Hyaluronic acid synthase (HAS) gene expression by qPCR in treated 3D skin tissue, HAS2; assay type: cell-based, Human; conditions: treated 3D skin EFT400FT tissue, 18S house keeping gene
Description: as §1

[1] = system: Human 3D skin EFT400FT tissues; assay: Stimulation of HA production in human 3D skin tissues (hyaluronic acid test kit on conditioned medium); assay type: cell-based; conditions: 30 μl on apical surface, 8 hours per day for 3 days
Description: Method: Human 3D skin EFT400FT (MatTek, MA, USA) tissues were cultured following manufacture's instruction. Tiliacora triandra extract (extracted from hydroponically grown plant using 20/80 (v/v) water/ethanol) was added directly to the culture medium from a stock solution of 10% (w/w) extract in water in an amount adequate to achieve a final concentration of 0.2% (w/w) in the culture medium. The culture medium (EFT-400-MM) with and without Tiliacora triandra extract was collected 24 hours after dosing and fresh medium with and without Tiliacora triandra extract was added. Conditioned media from 3-day collection were pooled and assayed for the levels of HA.
HA production was measured using hyaluronic acid test kit (Corgenix, Inc. CO, USA). […] Add 100 μl Stopping Solution to stop the enzyme reaction and read the O.D. of each well at 450 nm. The amount of HA in the conditioned medium was calculated from this standard curve. […]
The same procedure of Example 4 was repeated using the skincare active glycolic acid, alone or in combination with hydroponic Tiliacora triandra extract, to investigate possible synergies between hydroponic Tiliacora triandra extract and glycolic acid. […] Glycolic acid was formulated into the base formula provided below in Table 3 in an amount calculated to provide a 0.5% (w/w) concentration of glycolic acid in the emulsion. […]

Row | Compound | HAS3 gene % change of expression over control (HAS3 gene) [%] | HAS2 gene % change of expression over control (HAS2 gene) | % change in HA level over the control ([1]; Example 5, 0.5% (w/w) glycolic acid emulsion) [%] | % change in HA level over the control ([1]; Example 6, 5% (w/w) niacinamide emulsion) [%]
1 | O=C(O)CO [Glycolic acid, glycolic acid] | 101 | No effect | 25.21 | –
2 | NC(=O)c1cccnc1 [Niacinamide, niacinamide] | 106 | No effect | – | 119.54
